Data as given in patent US9212144B2, “2-aminoquinoline-based compounds for potent and selective neuronal nitric oxide synthase inhibition” (priority 2014, dated 2015).
Values joined by “and” are separate entries in the source; they are usually repeats but may differ in a detail not shown here. Equal entries are not always repeated. Structures can show the parent of a compound that is named as a salt. Where two headings read alike, the source gives them in different places.

Columns and labels:
newborn rabbit kits = settings: administered intravenously to the dam; cited from earlier work
Caco-2 cells = settings: background statement on prior art compound; cited from earlier work
rat nNOS = rat nNOS (Rattus norvegicus (Rat), UniProt P29476); test: Purified NOS enzyme assay (hemoglobin capture), rat nNOS; format: biochemical
bovine eNOS = bovine eNOS (Bos taurus (Bovine), UniProt P29473); test: Purified NOS enzyme assay (hemoglobin capture), bovine eNOS; format: biochemical; settings: for Ki: bovine eNOS, Ki calculated from IC50, average of at least two replicates; for Selectivity n/e: ratio of respective Ki values (eNOS/nNOS)
human nNOS = human nNOS (Homo sapiens (Human), UniProt P29475); test: Purified NOS enzyme assay (hemoglobin capture), human nNOS; format: biochemical
murine macrophage iNOS = murine macrophage iNOS (Mus musculus (Mouse), UniProt P29477); settings: for Selectivity n/i: ratio of respective Ki values (iNOS/nNOS); for Ki: read-out: Ki iNOS, murine iNOS, Ki calculated from IC50, average of at least two replicates
[1] = rat nNOS, Ki calculated from IC50, average of at least two replicates, read-out: Ki nNOS

In the case of Cc1cc(N)nc(C[C@@H]2CNC[C@@H]2NCCNCCc2cccc(F)c2)c1 [Compound 1], the “effect on hypoxic-ischemic brain damage phenotype” value (newborn rabbit kits) is listed as “reverses a hypoxic-ischemic brain damage phenotype”.

For [H]/N=C(/Nc1cccc(CNCCc2cccc(F)c2)c1)c1cccs1 [Compound 3], the “Caco-2 permeability” value (Caco-2 cells) is listed as “poor”.

With Cl.Cl.Nc1ccc2ccc(CNCCc3cccc(F)c3)cc2n1 [Compound 5, 7-[(3-Fluorophenethylamino)methyl]quinolin-2-amine Dihydrochloride] the Ki (rat nNOS; purified nNOS, read-out: inhibition of nNOS) was 0.074 µM, the Ki (rat nNOS; rat nNOS, Ki calculated from IC50, average of at least two replicates, Dihydrochloride, read-out: Ki nNOS) was 0.075 µM and 0.074 µM and the “selectivity for nNOS over eNOS” value (bovine eNOS) was “approximately 6 fold”. It also gave a Ki (bovine eNOS) of 0.485 µM, a Selectivity n/e (bovine eNOS) of 6.2 and a Ki (human nNOS; human nNOS, Ki calculated from IC50, average of at least two replicates) of 0.493 µM. The “Selectivity (Rat/Human)” value (human nNOS; ratio of respective Ki values, Ki-human/Ki-rat) was 6.7, the Selectivity n/i (murine macrophage iNOS) was 124 and the Ki (murine macrophage iNOS) was 9.14 µM.

Cl.Cl.Nc1ccc2ccc(CCNCc3cccc(F)c3)cc2n1 [Compound 6, 7-[2-(3-Fluorobenzylamino)ethyl]quinolin-2-amine Dihydrochloride] gave a Ki (rat nNOS; [1]) of 0.254 µM, a Ki (bovine eNOS) of 7.77 µM and a Selectivity n/e (bovine eNOS) of 30. For the same molecule, the Selectivity n/i (murine macrophage iNOS) was 97 and the Ki (murine macrophage iNOS) was 24.5 µM.

Molecule Cl.Cl.Nc1ccc2ccc(CNCCCc3cccc(F)c3)cc2n1 [Compound 9, 7-{2-[3-(3-Fluorophenyl(propylamino)methyl]}quinolin-2-amine Dihydrochloride] has a Ki (rat nNOS; [1]) of 0.06 µM, a Ki (bovine eNOS) of 3.69 µM and a Ki (murine macrophage iNOS) of 32.3 µM.

Cl.Cl.Nc1ccc2ccc(CNCCCc3cccc(F)c3)cc2n1 [Compound 9] showed a Selectivity n/e (bovine eNOS) of 62 and a Selectivity n/i (murine macrophage iNOS) of 538.

In the case of Nc1ccc2cc(CNCCc3cccc(F)c3)ccc2n1 [Compound 10, 6-[(3-Fluorophenethylamino)methyl]quinolin-2-amine Dihydrochloride], the Ki (rat nNOS; [1]) is reported as > 5.7 µM.

In the case of Nc1ccc2cc(CCNCc3cccc(F)c3)ccc2n1 [Compound 11, 6-[2-(3-Fluorobenzylamino)ethyl]quinolin-2-amine Dihydrochloride], the Ki (rat nNOS; [1]) is reported as > 5.7 µM.

In the case of Nc1ccc2cc(CCNCCc3cccc(F)c3)ccc2n1 [Compound 12, 6-[(3-Fluorophenethylamino)ethyl]quinolin-2-amine Dihydrochloride], the Ki (rat nNOS; [1]) is reported as > 5.7 µM.

With Cl.Cl.Nc1ccc2ccc(CCNCCc3ccc(F)cc3)cc2n1 [Compound 14, 7-[(4-Fluorophenethylamino)ethyl]quinolin-2-amine Dihydrochloride] the Ki (rat nNOS; [1]) was 0.183 µM, the Ki (bovine eNOS) was 8.86 µM and the Selectivity n/e (bovine eNOS) was 37. The Selectivity n/i (murine macrophage iNOS) was 280 and the Ki (murine macrophage iNOS) was 51.2 µM.

In the case of Cl.Cl.Nc1ccc2ccc(CCNCCc3ccc(Cl)cc3)cc2n1 [Compound 16, 7-[(4-Chlorophenethylamino)ethyl]quinolin-2-amine Dihydrochloride], the Ki (rat nNOS; [1]) is reported as 0.212 µM, the Ki (bovine eNOS) is reported as 9.89 µM and the Selectivity n/e (bovine eNOS) is reported as 47. The Selectivity n/i (murine macrophage iNOS) was 91 and the Ki (murine macrophage iNOS) was 19.2 µM.
